Source: paper PMC12071365, “Discovery of Boronic Acids-Based β-Lactamase Inhibitors Through In Situ Click Chemistry” (International Journal of Molecular Sciences, 2025)
Like-named read-outs stand apart in the source and are kept apart here.

Assays:
[1] = system: C[C@@H](O)[C@H]1C(=O)N2C(C(=O)O)=C(S[C@@H]3CN[C@H](C(=O)N(C)C)C3)[C@H](C)[C@H]12; experiment: purified protein, by the assay type; conditions: other: VIM-1, HEPES 20 mM pH 7.0 + 20 µM Zn
[2] = system: O=C(Cc1cccs1)N[C@@H]1C(=O)N2C(C(=O)O)=C(/C=C/c3ccc([N+](=O)[O-])cc3[N+](=O)[O-])CS[C@H]12; experiment: purified protein, by the assay type
KPC-2 [3] = biological target: T1, KPC-2 (Klebsiella pneumoniae, UniProt Q9F663); experiment: Competitive inhibition assay with nitrocefin, Ki; assay type: biochemical; conditions: for improvement compared with the warhead activity: Ki vs KPC-2 relative to warhead 3 (Ki = 2.3 µM)
T1 construct: made in house
Protocol: (§1) The β-lactamases used in the present study were from a Clinical Biochemistry Laboratory collection (Department of Biotechnological and Applied Clinical Sciences, University of L’Aquila, L’Aquila, Italy). […] The concentration of each enzyme was determined by a Bradford assay.
(§2) The plot v0/vi versus [I] yielded a straight line of slope KM/(KM + S) × Ki.
AC = Amplification coefficient. In the AC column, between brackets reports the regioisomeric ratio observed (1,4- vs. 1,5-) and bold reports the synthesised regioisomer. Light blue indicates the compounds obtained from the KPC-2 screening.

AmpC [4] = biological target: T2, AmpC (Escherichia coli, UniProt P00811); experiment: Competitive inhibition assay with nitrocefin, Ki; assay type: biochemical; design: made in house
Protocol: as §1, §2
Figure 9 Compounds synthesised and their biological evaluation. AC = Amplification coefficient. […] Light blue indicates the compounds from the AmpC screening.

AmpC [5] = biological target: T2, AmpC; design: made in house; conditions: AmpC 20 mol%; warhead 3 + alkyne cluster; 37 °C, 24 h
Protocol: Following the same conditions used for the multicomponent screening with KPC-2, the in situ click chemistry experiment was performed using AmpC as template.
(§3) Binary and multicomponent KTGS. […] The microtube was shaken at 300 rpm at 37 °C for 24 h. Reactions were transferred into a LC–MS vial and directly injected (10 µL) for liquid chromatography–mass spectrometry (LC–MS). Reactions were analysed with an Ultimate 3000 UHPLC coupled to a Q-exactive hybrid quadrupole-orbitrap mass spectrometer via an HESI-II heated electrospray ionisation source. The chromatographic separation was performed injecting a 10 µL sample volume on a Hypersil Gold C18 100 × 2.1 mm, 1.9 µm column (Thermo Fisher Scientific), kept at 30 °C eluting with 0.3 mL/min flow of ultrapure water (A) and methanol (B), both with 0.1% formic acid as mobile phase. […] A data-dependent mass spectrometric data acquisition strategy was used for full MS/DD-MS2. […] An inclusion list was eventually used to target the MS2 spectra acquisition of preferred ion species. Detection was based on calculated [M+H]^+ and [M−H]^− molecular ions with a 5 ppm accuracy tolerance for their respective ion chromatogram extraction. Peak retention time and area of detected target compounds was used for their detection and semi-quantitative evaluation in between reaction batches.
(§4) For controls (buffer and BSA), AmpC/KPC-2 is replaced with no enzyme (buffer volume 95 µL) and BSA (stock 100 µM, final concentration 5 µM, buffer volume 90 µL). Hits were identified in each cluster by mass and retention time and compared with both controls (buffer and BSA) and synthetically prepared triazoles obtained in mixtures.

KPC-2 [6] = biological target: T1, KPC-2; conditions: KPC-2 20 mol%; warhead 3 + alkyne cluster; 37 °C, 24 h
Protocol: Starting from the azido-functionalised boronic acid 3, optimised conditions (see SI Table S2) were applied in combination with the 90-component alkyne library. The reactions were conducted in 0.2 mL microtubes in a 95:5 sodium phosphate 50 mM pH 7.0:DMSO mixture (final volume 100 µL), stirring at 300 rpm at 37 °C for 24 h (Scheme 1).
The experiments were conducted in triplicate, using a reaction mixture containing one equivalent of warhead 3, five equivalents of each alkyne cluster (9 alkynes), and 20 mol% KPC-2 as the catalyst. Product formation was monitored directly from the crude mixture using a hybrid quadrupole orbitrap LC–MS system in the ESI+ or ESI- mode after 24 h. Peak areas of the desired products were compared across three conditions: with KPC-2, without any enzyme, and with bovine serum albumin (BSA). […] The resulting ratio, named as the amplification coefficient (AC), was calculated from the peak area of the product obtained in the presence of KPC-2 vs. the one acquired with the controls.
as §3, §4

IMP-1 = biological target: T3, IMP-1 (Serratia marcescens, UniProt P52699); experiment: % inhibition at fixed concentration; assay type: biochemical
T3 construct: made in house
Protocol: (§5) Selection of an appropriate warhead-bearing reagent is crucial for achieving a successful in situ click chemistry. Thus, we assessed the inhibitory activity of the selected warheads against a pool of different β-lactamases to verify their binding specificity for the target. The affinity (inhibitory ability) of 2-4 against 12 representative β-lactamases from class A, B, C, and D was assessed as the percentage of inhibition at a fixed concentration of 200 µM (Table 1).
as §1, §2
(§6) For the β-lactamases test at a fixed concentration previously reported in Table 1, the following conditions were applied (Table 3): […]

KPC-53 = KPC-53 (Klebsiella pneumoniae, UniProt Q9F663, DUP166-167/H272Y); experiment: % inhibition at fixed concentration; assay type: biochemical
Protocol: as §5, §1, §2, §6

OXA-24 = OXA-24 (Acinetobacter baumannii, UniProt Q8RLA6); experiment: % inhibition at fixed concentration; assay type: biochemical
Protocol: as §5, §1, §2, §6

KPC-2 [7] = biological target: T1, KPC-2; experiment: % inhibition at fixed concentration; assay type: biochemical
Protocol: as §5, §1, §2, §6

CTX-M-15 = biological target: T4, CTX-M-15 (Escherichia coli, UniProt Q9EXV5); experiment: % inhibition at fixed concentration; assay type: biochemical
T4 construct: made in house
Protocol: as §5, §1, §2, §6

VIM-1 = biological target: T5, VIM-1 (Pseudomonas aeruginosa, UniProt A0A0F7KYQ8); experiment: % inhibition at fixed concentration; assay type: biochemical
T5 construct: made in house
Protocol: as §5, §1, §2, §6

OXA-48 = OXA-48 (Klebsiella pneumoniae, UniProt Q6XEC0); experiment: % inhibition at fixed concentration; assay type: biochemical; conditions: OXA-48, class D; inhibitor 200 µM; substrate IMI
Protocol: as §5, §1, §2, §6

CMY-2 = CMY-2 (Klebsiella pneumoniae, UniProt Q48434); experiment: % inhibition at fixed concentration; assay type: biochemical
Protocol: as §5, §1, §2, §6

ADC-25 = ADC-25 (Acinetobacter baumannii, UniProt A8QIF8); experiment: % inhibition at fixed concentration; assay type: biochemical
Protocol: as §5, §1, §2, §6

KPC-2 [8] = biological target: T1, KPC-2; design: method as in PMID 35792385; conditions: ref [58]; cited from earlier work
AmpC [9] = biological target: T2, AmpC; experiment: % inhibition at fixed concentration; assay type: biochemical; design: made in house
From the text: Selection of an appropriate warhead-bearing reagent is crucial for achieving a successful in situ click chemistry. Thus, we assessed the inhibitory activity of the selected warheads against a pool of different β-lactamases to verify their binding specificity for the target. […]
as §1, §2, §6

SHV-12 = SHV-12 (Klebsiella pneumoniae, UniProt P0AD64, E235K/G234S/L31Q); experiment: % inhibition at fixed concentration; assay type: biochemical; conditions: SHV-12, class A; inhibitor 200 µM; substrate NCF
NDM-1 = NDM-1 (Klebsiella pneumoniae, UniProt C7C422); experiment: % inhibition at fixed concentration; assay type: biochemical; design: made in house
Protocol: as §5, §1, §2, §6

ADC-7 = biological target: ADC-7; design: method as in PMID 26102369, PMID 34970229, PMID 37358467, PMID 26729491; conditions: ref [17],[19],[35],[36]; cited from earlier work

T2 sequence (P00811 20-377): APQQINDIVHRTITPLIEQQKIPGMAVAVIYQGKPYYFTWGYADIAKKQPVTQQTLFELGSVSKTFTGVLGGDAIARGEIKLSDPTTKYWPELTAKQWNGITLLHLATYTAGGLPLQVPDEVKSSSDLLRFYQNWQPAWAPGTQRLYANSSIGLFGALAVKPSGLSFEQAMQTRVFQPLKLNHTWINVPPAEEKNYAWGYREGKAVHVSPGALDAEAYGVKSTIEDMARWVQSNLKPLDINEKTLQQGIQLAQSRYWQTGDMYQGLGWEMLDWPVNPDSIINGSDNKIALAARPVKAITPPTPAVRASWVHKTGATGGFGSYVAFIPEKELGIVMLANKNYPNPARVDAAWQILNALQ
T4 sequence (Q9EXV5 entry or part of it): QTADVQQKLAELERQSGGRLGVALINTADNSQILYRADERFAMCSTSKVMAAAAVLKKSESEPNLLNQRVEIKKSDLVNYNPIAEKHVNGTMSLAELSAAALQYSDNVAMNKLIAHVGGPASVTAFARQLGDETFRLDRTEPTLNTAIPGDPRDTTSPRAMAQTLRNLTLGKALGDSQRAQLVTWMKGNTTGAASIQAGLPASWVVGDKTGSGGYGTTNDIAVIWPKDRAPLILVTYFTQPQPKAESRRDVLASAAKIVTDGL

VIM-1 (Pseudomonas aeruginosa PAO1)
Km [1]: 130 ± 4 µM µM

OXA-24 (Acinetobacter baumannii)
Km ([2]; other: OXA-24, NaPi 50 mM pH 7.0): 29 ± 1 µM µM

CCCCC(=O)NCc1cn(Cc2cccc(B(O)O)c2)nn1 [compound 8]
Ki (KPC-2 [3]): 7600 ± 400 nM
Ki (AmpC [4]): 1500 nM

COC(=O)c1cccc(CS(=O)(=O)NCc2cnnn2Cc2cccc(B(O)O)c2)c1 [7a]
Ki (KPC-2 [3]): 4600 nM
Ki (AmpC [4]; AmpC, values in nM): 170 nM

COC(=O)c1cccc(CS(=O)(=O)NCc2cn(Cc3cccc(B(O)O)c3)nn2)c1 [compound 7]
AC (amplification coefficient) (AmpC [5]): 4-5
Ki (KPC-2 [3]): 1700 nM
Ki (AmpC [4]; AmpC, values in nM): 300 nM
AC (amplification coefficient) (KPC-2 [6]): 5-6

NC(=O)c1cccc(OCc2cn(Cc3cccc(B(O)O)c3)nn2)c1 [compound 5]
Ki (KPC-2 [3]; KPC-2, values in nM): 730 nM
improvement compared with the warhead activity (KPC-2 [3]): 3 fold
AC (amplification coefficient) (KPC-2 [6]): 3-4

O=S(=O)(Cc1cn(Cc2cccc(B(O)O)c2)nn1)c1ccccc1 [compound 6]
Ki (KPC-2 [3]): 800 nM
improvement compared with the warhead activity (KPC-2 [3]): 3 fold
AC (amplification coefficient) (KPC-2 [6]): 3-4

CN(C)c1ccc(-c2cn(Cc3cccc(B(O)O)c3)nn2)cc1 [compound 11]
Ki (KPC-2 [3]): 460 nM
Ki (AmpC [4]; AmpC, values in nM): 280 nM

[N-]=[N+]=NCc1ccc(B(O)O)cc1 [compound 4, (4-(azidomethyl)phenyl)boronic acid]
inhibition at 200 µM (IMP-1): 22%
inhibition at 200 µM (KPC-53): 55%
inhibition at 200 µM (OXA-24): 26%
inhibition at 100 µM (KPC-2 [7]): 72%
inhibition at 200 µM (CTX-M-15): 22%
inhibition at 200 µM (VIM-1): 33%
inhibition at 200 µM (OXA-48): < 1%
inhibition at 200 µM (CMY-2): 67%
inhibition at 200 µM (ADC-25): 46%
activity vs. KPC-2 (KPC-2 [8]): sub-µM
inhibition at 100 µM (AmpC [9]): 81%
% of inhibition (SHV-12): 48%
inhibition at 200 µM (NDM-1): 24%

CMY-2 (Klebsiella pneumoniae)
Km ([2]; other: CMY-2, NaPi 50 mM pH 7.0): 8 ± 1 µM µM

C#CCNC(=O)c1ccc(C(=O)OC)cc1 [Al-88]
AC (amplification coefficient) (AmpC [5]): 3-4

[N-]=[N+]=NCc1ccccc1B(O)O [compound 2]
inhibition at 200 µM (IMP-1): 12%
inhibition at 200 µM (KPC-53): 54%
inhibition at 200 µM (OXA-24): 20%
inhibition at 100 µM (KPC-2 [7]): 35%
inhibition at 200 µM (CTX-M-15): 0%
inhibition at 200 µM (VIM-1): 23%
inhibition at 200 µM (OXA-48): < 1%
inhibition at 200 µM (CMY-2): 19%
inhibition at 200 µM (ADC-25): 27%
inhibition at 100 µM (AmpC [9]): 57%
% of inhibition (SHV-12): 14%
inhibition at 200 µM (NDM-1): 23%

Nc1nnc(SCC(=O)N[C@@H](Cn2cc(C(=O)O)nn2)B(O)O)s1 [MB076]
Ki (ADC-7): 210 nM
